Data set [1] has as its system APP cleavage products in E4FAD mice. The experiment in a line: Second oral 56-day study, APP-derived cleavage products in hippocampus. Format: in vivo. The following applies: oral 56 days, vs vehicle. The method, then: (§1) E4FAD mice were 10–12 mo and NTg mice 7–9 mo at the start of the study.
(§2) Mice were euthanized and blood/tissues collected 2 hrs after dosing on Day 56 by the method described above for PK. Hip and FrCx were collected for analysis of SirT1, sAPPα, and Aβ1-42 levels by AlphaLISA. For Aβ1-42 the Perkin Elmer kit AL276C was used. Protein concentrations were determined using the Bradford protein assay. The sAPPα and sAPPβ AlphaLISAs were similar to the SirT1 AlphaLISA (see Supplementary Fig. S3) but the former uses anti-sAPPα antibody AF1168 and 2B3-biotinylated antibodies and the latter an anti-sAPPβ antibody (IBL Cat. #18957) and an anti-N-terminal APP antibody (R&D Systems AF1168) instead of anti-SirT1 antibodies. Brain tissue and plasma were sent to IAS for A03 level analysis.

For data set [2], the system named is E4FAD mice. The data set is described as follows: Y maze Forced Alternation in 56-day study. The format is in vivo. Conditions: minute 1 or by 5 minutes. As to the method:
Study mice also underwent Forced Alternation (FA) tests in a Y maze apparatus[74],[75]. Details of the method can be found in Supplementary Methods. Briefly, individual test mice are prevented from entering one of three arms of the maze in the first 5 minute trial and after 30 minutes is returned to maze wherein the blocked arm is available. Time in Novel Arm C [%] was defined as the time spent in the novel arm divided by the time spent in all arms during the first minute.
A small molecule ApoE4-targeted therapeutic candidate that normalizes sirtuin 1 levels and Improves cognition in an Alzheimer’s disease mouse model
Jesus Campagna, Patricia Spilman, Barbara Jagodzinska, Dongsheng Bai, Asa Hatami, Chunni Zhu, Tina Bilousova, Michael Jun, Chris Jean Elias, Johnny Pham, Gregory Cole, Mary Jo LaDu, Michael E. Jung, Dale E. Bredesen, and […]
Confirmation assay in A172-E4 cells. […]
Cells were incubated with the compound for 60 hrs, then cell culture medium (for sAPPα) and cells (lysates for SirT1) were harvested and levels of sAPPα and SirT1 determined by AlphaLISA. […]
PAMPA. […] The parameters determined are Tr = retention time of compound; KIAM= (Tr-T0)/T0; T0= is the delay time of the column, determined by use of 100 µg/mL citric acid) and was T0= 1.24 min; and (KIAM/MW4)*10-(10). […]
Forced Alternation. […] An arm entry was recorded when all 4 paws of the mouse entered the arm. […]

For data set [3], the system named is SirT2 levels in N2a-E4 cells. The data set is described as follows: SirT2 sandwich ELISA in N2a-E4 cells. Conditions: A03 at 5 or 50 μM vs DMSO. The format is cell-based, murine. (ELISA stands for enzyme-linked immunosorbent assay.)
Data set [4] deals with E4FAD mice. The data set is described as follows: Novel Object Recognition (NOR) in 56-day study. The format is in vivo. Conditions: total time with both objects, vs E4FAD Veh. As to the method:
as §1
All mice underwent NOR testing the last week of dosing. Mice were acclimated to a 30 × 40 cm arena for 15 minutes 24 hrs before acquisition. Individual mice underwent acquisition by exposure to two identical objects for 10 min. and then were returned to the home cage overnight. For the probe, individual mice were returned to the arena wherein one of the objects had been changed. Mice were allowed to explore the objects for 10 minutes. Both the acquisition and probe were recorded on tripod-mounted video cameras. The number of discreet interactions with each object (nose within 1 cm of the object) and time spent with each object were scored by personnel blind to the treatment and genotype of the mice; scores were spot-checked by a second scorer. The discrimination index (DI) was calculated by subtracting time spent (or number of interactions) with the familiar object (TF) from time spent (or number of interactions) with the novel object (TN), and then dividing that value by the sum of those two values [DI = (TN − TF)/(TN + TF)][73].

A short description of data set [5]: Brain compound levels 2 hours after the last dose in efficacy studies. The format is in vivo, mice. As to the method:
Mice were euthanized and blood/tissues collected 2 hrs after dosing on day 28 by the method described above for PK. Frontal and parietal cortices (FrCx and PtCx, respectively), as well as the remaining brain tissue, from individual mice were dissected, snap frozen on dry ice, and stored at −80 °C. Plasma samples and the brain tissue minus the FrCx and PtCx (the ‘rest’) from all compound-treated mice were sent to IAS for compound level analysis as described above.
Mice were euthanized and blood/tissues collected 2 hrs after dosing on Day 25 by the method described above for PK. FrCx, PtCx, and hippocampi (Hip) were collected from all mice for SirT1 and sAPPα level determination by AlphaLISA. Protein concentration was determined using a Bradford protein assay. Brain and plasma levels of A03 were determined at IAS.
as §2

For the molecule `CC(N)C(=O)OC(C)(C)Cc1ccc(Cl)cc1` (stereo not drawn) [A03, alaproclate], in data set [1], the “Aβ1-42 in the Hip” value is listed as “lower than E4FAD Veh, but not significantly so”; the “sAPPα in the Hip” value is “only slightly higher”; the “sAPPβ in the Hip” value was “not changed”. Besides, the “Y maze FA, entries into the Novel Arm C” value with E4FAD mice [2] is given as “no significant differences amongst groups”. Further, the “SirT2 (normalized to protein)” value in data set [3] is listed as “not significantly altered”. Also, the “Exploration time in NOR” value in the data set on E4FAD mice [4] was “similar”. In addition, the “Brain level 2 hours after the last dose” value in data set [5] (25-day study, oral 40 mg/kg/day, n = 12) is listed as “above 2000 n/g”. Also, in data set [5] (E4FAD, mouse, brain, 56-day study, oral 40 mg/kg/day, n = 16, read-out: Brain level 2 hours after the last dose), the concentration at 2 h is about 700 ng/g. The “Brain levels 2 hours after the last dose, E1 vs A03” value in data set [5] (pilot study, SQ 10 mg/kg/day, 28 days, n = 8) is on record as “slightly higher”.
